A word on the Ki: it is the equilibrium dissociation constant of an inhibitor or competing ligand from its target. A low value points to a stronger hold on the target. In general, Km refers to the substrate concentration at which the rate is half of its maximum.

Consider 3 molecules from ChEMBL document CHEMBL2074089, “Methotrexate is excreted into the bile by canalicular multispecific organic anion transporter in rats” (Cancer Res, 1997).

Holding throughout (format): functional, cell membranes, Sprague-Dawley, Bile canalicular membrane vesicle
In series [1] the target is T1, ATP-binding cassette sub-family C member 2 (Rattus norvegicus, UniProt Q63120). The series is described as follows: TP_TRANSPORTER: inhibition of DNP-SG uptake in bile canalicular membrane vesicles from SD rat.
Series [2] deals with T1, ATP-binding cassette sub-family C member 2. The series is described as follows: TP_TRANSPORTER: inhibition of L-MTX uptake in bile canalicular membrane vesicles from SD rat.
Substrate in series [3]: N[C@@H](CCC(=O)N[C@H](CSc1ccc([N+](=O)[O-])cc1[N+](=O)[O-])C(=O)NCC(=O)O)C(=O)O
The series is described as follows: (§1) TP_TRANSPORTER: uptake in bile canalicular membrane vesicles from SD rat.

Substrate in series [4]: CN(Cc1cnc2nc(N)nc(N)c2n1)c1ccc(C(=O)N[C@@H](CCC(=O)O)C(=O)O)cc1
The series is described as §1.

For the molecule `CN(Cc1cnc2nc(N)nc(N)c2n1)c1ccc(C(=O)N[C@@H](CCC(=O)O)C(=O)O)cc1` [METHOTREXATE], the Ki in series [1] was 236 µM; in series [2], 326 µM.

In turn, `CN(Cc1cnc2nc(N)nc(N)c2n1)c1ccc(C(=O)N[C@H](CCC(=O)O)C(=O)O)cc1` yielded a Ki in series [2] of 92.8 µM. In other words, the double-digit micromolar range.

B1: ATP-binding cassette sub-family C member 2 (Rattus norvegicus) (protein)
chain: MDKFCNSTFWDLSLLESPEADLPLCFEQTVLVWIPLGFLWLLAPWQLYSVYRSRTKRSSITKFYLAKQVFVVFLLILAAIDLSLALTEDTGQATVPPVRYTNPILYLCTWLLVLAVQHSRQWCVRKNSWFLSLFWILSVLCGVFQFQTLIRALLKDSKSNMAYSYLFFVSYGFQIVLLILTAFSGPSDSTQTPSVTASFLSSITFSWYDRTVLKGYKHPLTLEDVWDIDEGFKTRSVTSKFEAAMTKDLQKARQAFQRRLQKSQRKPEATLHGLNKKQSQSQDVLVLEEAKKKSEKTTKDYPKSWLIKSLFKTFHVVILKSFILKLIHDLLVFLNPQLLKLLIGFVKSSNSYVWFGYICAILMFAVTLIQSFCLQSYFQHCFVLGMCVRTTVMSSIYKKALTLSNLARKQYTIGETVNLMSVDSQKLMDATNYMQLVWSSVIQITLSIFFLWRELGPSILAGVGVMVLLIPVNGVLATKIRNIQVQNMKNKDKRLKIMNEILSGIKILKYFAWEPSFQEQVQGIRKKELKNLLRFGQLQSLLIFILQITPILVSVVTFSVYVLVDSANVLNAEKAFTSITLFNILRFPLSMLPMVTSSILQASVSVDRLERYLGGDDLDTSAIRRVSNFDKAVKFSEASFTWDPDLEATIQDVNLDIKPGQLVAVVGTVGSGKSSLVSAMLGEMENVHGHITIQGSTAYVPQQSWIQNGTIKDNILFGSEYNEKKYQQVLKACALLPDLEILPGGDMAEIGEKGINLSGGQKQRVSLARAAYQDADIYILDDPLSAVDAHVGKHIFNKVVGPNGLLAGKTRIFVTHGIHFLPQVDEIVVLGKGTILEKGSYRDLLDKKGVFARNWKTFMKHSGPEGEATVNNDSEAEDDDDGLIPTMEEIPEDAASLAMRRENSLRRTLSRSSRSSSRRGKSLKNSLKIKNVNVLKEKEKEVEGQKLIKKEFVETGKVKFSIYLKYLQAVGWWSILFIILFYGLNNVAFIGSNLWLSAWTSDSDNLNGTNNSSSHRDMRIGVFGALGLAQGICLLISTLWSIYACRNASKALHGQLLTNILRAPMRFFDTTPTGRIVNRFSGDISTVDDLLPQTLRSWMMCFFGIAGTLVMICMATPVFAIIIIPLSILYISVQVFYVATSRQLRRLDSVTKSPIYSHFSETVTGLPIIRAFEHQQRFLAWNEKQIDINQKCVFSWITSNRWLAIRLELVGNLVVFCSALLLVIYRKTLTGDVVGFVLSNALNITQTLNWLVRMTSEAETNIVAVERISEYINVENEAPWVTDKRPPADWPRHGEIQFNNYQVRYRPELDLVLKGITCNIKSGEKVGVVGRTGAGKSSLTNCLFRILESAGGQIIIDGIDVASIGLHDLRERLTIIPQDPILFSGSLRMNLDPFNKYSDEEVWRALELAHLRSFVSGLQLGLLSEVTEGGDNLSIGQRQLLCLGRAVLRKSKILVLDEATAAVDLETDSLIQTTIRKEFSQCTVITIAHRLHTIMDSDKIMVLDNGKIVEYGSPEELLSNRGSFYLMAKEAGIENVNHTEL
For B1, the Michaelis-Menten constant (Km) in series [3] is 10.7 µM; in series [4], 296 µM.
